Measurements taken from patent US20240342947A1, “A WOOD PRESERVATIVE COMPOSITION COMPRISING 4,5-DICHLORO-2-OCTYLISOTHIAZOL-3(2H)-ONE, A METHOD TREATING A WOOD SUBSTRATE THEREWITH, AND A WOOD PRODUCT PRODUCED THEREFROM” (KOPPERS PERFORMANCE CHEMICALS, INC., priority 2021, published 2024).

Assay: #2 Diesel solvency for DCOI testing
Type: physicochemical
Method: Solvency (i.e., ability to dissolve) of #2 diesel for DCOI was measured. Initially, different amounts of DCOI (98.5% purity) was dissolved in #2 diesel in respective vials to make a DCOI concentrate. Thereafter, the vials were stored at ambient temperature (i.e., 21 degrees Celsius+/−2 degrees) or 4 degrees Celsius for up to 7 days. During storage, the vials were monitored for phase separation, precipitation, and turbidity, which may indicate incompatibility between the organic solvent and the DCOI. Whenever a phase separation, precipitation or solution turbidity event happened, the vial was no longer monitored and the DCOI concentration in that solution was considered to be higher than the solvency of the organic solvent.
After two hours of storage at ambient temperature, it was observed that the solvency of #2 diesel for DCOI without any additional polar solvents was no greater than 15% by weight because the DCOI precipitated in the vials containing concentrations of DCOI of greater than 15% by weight. […] Therefore, the maximum solvency of #2 diesel is for DCOI was determined to be 15% by weight.

solvency of #2 diesel for DCOI (after two hours of storage at ambient temperature, without any additional polar solvents): ≤ 15 % by weight
maximum solvency of #2 diesel for DCOI (ambient temperature, no solid DCOI precipitated after 7 days): 15 % by weight
SMILES: CCCCCCCCn1sc(Cl)c(Cl)c1=O [DCOI, 4,5-dichloro-2-octylisothiazol-3 (2H)-one]
